Key:
[1] = tested on: HCT116 MTAP wild-type cells; assay: Human colon cancer HCT116 cell proliferation inhibition test (CellTiter-Glo, 6 days), MTAP wild-type cells; type: cell-based; details: HCT-116, 144 h
Method: (§1) 1. HCT116 MTAP knockout and MTAP wild-type cells were plated in 96-well flat bottom plates, and cultured overnight with McCoy's 5A medium containing 10% fetal bovine serum+1% penicillin-streptomycin at 37° C. and 5% CO2.
(§2) 2. On the next day, the compound was dissolved with DMSO, diluted with DMSO and medium successively and transferred to the cell plate. The final concentration of the compound was 10 μM, the compound was diluted 4 times, with 9 concentration gradients, and DMSO control was added.
(§3) 3. Cells that have not been treated with the compound were removed. CellTiter-Glo Luminescent Cell Viability Assay (Promega) was used to detect cell viability, the operation was performed with reference to the package insert of the kit, and then the cell plate was placed on EnVision Multilabel Reader to detect the cold light signal.
(§4) 4. Meanwhile, the cell plate treated with the compound was cultured at 37° C. and 5% CO2 for 6 consecutive days.
(§5) 5. Then, CellTiter-Glo was also used to detect cell viability.
(§6) 6. Finally, the four-parameter dose-response curve module of GraphPad Prism v 9.2.0 software was used to plot the dose-response curve and calculate the IC50 for proliferation inhibition (unit: nM).

[2] = tested on: HCT116 MTAP knockout cells; assay: Human colon cancer HCT116 cell proliferation inhibition test (CellTiter-Glo, 6 days), MTAP knockout cells; type: cell-based; details: HCT-116, 144 h
Method: as §1, §2, §3, §4, §5, §6

`Cn1cc(N(C(=O)c2ccc3nc(N)c4c(cnn4C)c3c2)[C@H]2COc3cc(C(F)(F)F)ccc32)cn1` [Example 188, (R)-4-amino-3-methyl-N-(1-methyl-1H-pyrazol-4-yl)-N-(6-(trifluoromethyl)-2,3-dihydrobenzofuran-3-yl)-3H-pyrazolo[3,4-c]quinolin-8-carboxamide] gave an IC50 [1] greater than 10000 nM and an IC50 [2] of 2640 nM.

`Nc1nc2cc(F)c(C(=O)N(CC3CC3)[C@@H]3COc4nc(C(F)(F)F)ccc43)cc2c2cnccc12` [Example 231, (S)-5-amino-N-(cyclopropylmethyl)-8-fluoro-N-(6-(trifluoromethyl)-2,3-dihydrofuro[2,3-b]pyridin-3-yl)benzo[c][2,6]naphthyridin-9-carboxamide] gave an IC50 [1] of 604 nM and an IC50 [2] of 15 nM.

`Cn1cc(N(C(=O)c2ccc3nc(N)c4c(cnn4C)c3c2)[C@@H]2COc3cc(C(F)(F)F)ccc32)cn1` [Example 187, (S)-4-amino-3-methyl-N-(1-methyl-1H-pyrazol-4-yl)-N-(6-(trifluoromethyl)-2,3-dihydrobenzofuran-3-yl)-3H-pyrazolo[3,4-c]quinolin-8-carboxamide] was tested, and the IC50 [1] was 2440 nM and the IC50 [2] was 50 nM.

Compound `Nc1nc2ccc(C(=O)N(c3cscn3)[C@@H]3CCc4cc(C(F)(F)F)ccc43)cc2c2cnccc12` [Example 212, (R)-5-amino-N-(thiazol-4-yl)-N-(5-(trifluoromethyl)-2,3-dihydro-1H-inden-1-yl)benzo[c][2,6]naphthyridin-9-carboxamide] has an IC50 [2] of 16 nM.

In the case of `C[C@H](c1ncccn1)N(C(=O)c1ccc2nc(N)c3ccncc3c2c1)[C@@H]1CCc2cc(C(F)(F)F)ccc21` [Example 222, 5-amino-N-((R)-1-(pyrimidin-2-yl)ethyl)-N-((R)-5-(trifluoromethyl)-2,3-dihydro-1H-inden-1-yl)benzo[c][2,6]naphthyridin-9-carboxamide], the IC50 [2] is reported as 217 nM.

For `COC[C@@H](C)N(C(=O)c1cc2c3c(c(N)nc2cc1F)COC3)[C@@H]1CCc2cc(C(F)(F)F)ccc21` [Example 218, 4-amino-7-fluoro-N-((R)-1-methoxypropan-2-yl)-N-((R)-5-(trifluoromethyl)-2,3-dihydro-1H-inden-1-yl)-1,3-dihydrofuro[3,4-c]quinolin-8-carboxamide], the IC50 [2] was 485 nM.

Compound `C[C@@H](c1ncccn1)N(C(=O)c1cc2c3c(c(N)nc2cc1F)COC3)[C@@H]1CCc2cc(C(F)(F)F)ccc21` [Example 224, 4-amino-7-fluoro-N-((S)-1-(pyrimidin-2-yl)ethyl)-N-((R)-5-(trifluoromethyl)-2,3-dihydro-1H-inden-1-yl)-1,3-dihydrofuro[3,4-c]quinolin-8-carboxamide] has an IC50 [2] of 640 nM.

`C[C@H](c1ncccn1)N(C(=O)c1cc2c(cc1F)nc(N)c1cnn(C)c12)[C@@H]1CCc2cc(C(F)(F)F)ccc21` [Example 221, 4-amino-7-fluoro-1-methyl-N-((R)-1-(pyrimidin-2-yl)ethyl)-N-((R)-5-(trifluoromethyl)-2,3-dihydro-1H-inden-1-yl)-1H-pyrazolo[4,3-c]quinolin-8-carboxamide] showed an IC50 [1] of 1340 nM and an IC50 [2] of 88 nM.

`Nc1nc2ccc(C(=O)N(CC3CC3)C3COc4nc(C(F)(F)F)ccc43)cc2c2cnccc12` (stereo not shown) [Example 111, 5-amino-N-(cyclopropylmethyl)-N-(6-(trifluoromethyl)-2,3-dihydrofuro[2,3-b]pyridin-3-yl)benzo[c][2,6]naphthyridin-9-carboxamide] gave an IC50 [2] of 115 nM.

`Cn1cc(N(C(=O)c2cc3c4c(c(N)nc3cc2F)COC4)[C@@H]2CCc3cc(C(F)(F)F)ccc32)cn1` [Example 220, (R)-4-amino-7-fluoro-N-(1-methyl-1H-pyrazol-4-yl)-N-(5-(trifluoromethyl)-2,3-dihydro-1H-inden-1-yl)-1,3-dihydrofuro[3,4-c]quinolin-8-carboxamide] gave an IC50 [1] of 335 nM and an IC50 [2] of 17 nM.

`Nc1nc2ccc(C(=O)N(c3ncns3)[C@@H]3CCc4cc(C(F)(F)F)ccc43)cc2c2cnccc12` [Example 191, (R)-5-amino-N-(1,2,4-thiadiazol-5-yl)-N-(5-(trifluoromethyl)-2,3-dihydro-1H-inden-1-yl)benzo[c][2,6]naphthyridin-9-carboxamide] was tested, and the IC50 [2] was 2900 nM.

With `C[C@H](c1ncccn1)N(C(=O)c1cc2c3c(c(N)nc2cc1F)COC3)[C@@H]1CCc2cc(C(F)(F)F)ccc21` [Example 223, 4-amino-7-fluoro-N-((R)-1-(pyrimidin-2-yl)ethyl)-N-((R)-5-(trifluoromethyl)-2,3-dihydro-1H-inden-1-yl)-1,3-dihydrofuro[3,4-c]quinolin-8-carboxamide] the IC50 [2] was 118 nM.

`Nc1nc2ccc(C(=O)N(CC3CC3)[C@H]3CCc4nc(C(F)(F)F)ccc43)cc2c2cnccc12` [Example 1, (S)-5-amino-N-(cyclopropylmethyl)-N-(2-(trifluoromethyl)-6,7-dihydro-5H-cyclopenta[b]pyridin-5-yl)benzo[c][2,6]naphthyridin-9-carboxamide] was tested, and the IC50 [2] was 792 nM.

`Nc1nc2ccc(C(=O)N(CC3CC3)[C@@H]3CCc4nc(C(F)(F)F)ccc43)cc2c2cnccc12` [Example 199, (R)-5-amino-N-(cyclopropylmethyl)-N-(2-(trifluoromethyl)-6,7-dihydro-5H-cyclopenta[b]pyridin-5-yl)benzo[c][2,6]naphthyridin-9-carboxamide] gave an IC50 [2] of 134 nM.

`COC[C@@H](C)N(C(=O)c1ccc2nc(N)c3ccncc3c2c1)[C@H]1CCc2cc(C(F)(F)F)ccc21` [Example 215, 5-amino-N-((R)-1-methoxypropan-2-yl)-N-((S)-5-(trifluoromethyl)-2,3-dihydro-1H-inden-1-yl)benzo[c][2,6]naphthyridin-9-carboxamide] was tested, and the IC50 [2] was 6930 nM.

`Cn1ncc2c(N)nc3ccc(C(=O)N(c4ncccn4)C4CCc5cc(C(F)(F)F)ccc54)cc3c21` (stereo not shown) [Example 214, 4-amino-1-methyl-N-(pyrimidin-2-yl)-N-(5-(trifluoromethyl)-2,3-dihydro-1H-inden-1-yl)-1H-pyrazolo[4,3-c]quinolin-8-carboxamide] was tested, and the IC50 [2] was 325 nM.

With `COC[C@@H](C)N(C(=O)c1cc2c3c(c(N)nc2cc1F)COC3)[C@H]1CCc2cc(C(F)(F)F)ccc21` [Example 217, 4-amino-7-fluoro-N-((R)-1-methoxypropan-2-yl)-N-((S)-5-(trifluoromethyl)-2,3-dihydro-1H-inden-1-yl)-1,3-dihydrofuro[3,4-c]quinolin-8-carboxamide] the IC50 [2] was 2360 nM.

`Cn1ncc2c(N)nc3cc(F)c(C(=O)N(Cc4cscn4)C4CCc5cc(C(F)(F)F)ccc54)cc3c21` (stereo not shown) [Example 95, 4-amino-7-fluoro-1-methyl-N-(thiazol-4-ylmethyl)-N-(5-(trifluoromethyl)-2,3-dihydro-1H-inden-1-yl)-1H-pyrazolo[4,3-c]quinolin-8-carboxamide] gave an IC50 [2] of 52 nM.

`Nc1nc2ccc(C(=O)N(CC3CC3)C3CCc4nc(C(F)(F)F)ccc43)cc2c2cnccc12` (stereo not shown) [Example 110, 5-amino-N-(cyclopropylmethyl)-N-(2-(trifluoromethyl)-6,7-dihydro-5H-cyclopenta[b]pyridin-5-yl)benzo[c][2,6]naphthyridin-9-carboxamide] showed an IC50 [2] of 116 nM.

Compound `Nc1nc2ccc(C(=O)N(CC3CC3)[C@H]3COc4nc(C(F)(F)F)ccc43)cc2c2cnccc12` [Example 196, (R)-5-amino-N-(cyclopropylmethyl)-N-(6-(trifluoromethyl)-2,3-dihydrofuro[2,3-b]pyridin-3-yl)benzo[c][2,6]naphthyridin-9-carboxamide] has an IC50 [2] of 1530 nM.

Compound `Cn1ncc2c(N)nc3cc(F)c(C(=O)N(c4cscn4)[C@@H]4CCc5cc(C(F)(F)F)ccc54)cc3c21` [Example 211, (R)-4-amino-7-fluoro-1-methyl-N-(thiazol-4-yl)-N-(5-(trifluoromethyl)-2,3-dihydro-1H-inden-1-yl)-1H-pyrazolo[4,3-c]quinolin-8-carboxamide] has an IC50 [2] of 4 nM.

Work on `COC[C@@H](C)N(C(=O)c1ccc2nc(N)c3ccncc3c2c1)[C@@H]1CCc2cc(C(F)(F)F)ccc21` [Example 216, 5-amino-N-((R)-1-methoxypropan-2-yl)-N-((R)-5-(trifluoromethyl)-2,3-dihydro-1H-inden-1-yl)benzo[c][2,6]naphthyridin-9-carboxamide] yielded an IC50 [2] of 940 nM.

In the case of `Cn1ncc2c(N)nc3cc(F)c(C(=O)N(CC(F)(F)F)C4COc5cc(C(F)(F)F)ccc54)cc3c21` (stereo not shown) [Example 157, 4-amino-7-fluoro-1-methyl-N-(2,2,2-trifluoroethyl)-N-(6-(trifluoromethyl)-2,3-dihydrobenzofuran-3-yl)-1H-pyrazolo[4,3-c]quinolin-8-carboxamide], the IC50 [2] is reported as 139 nM.

Work on `Cn1ncc2c(N)nc3cc(F)c(C(=O)N(c4cscn4)C4CCc5cc(C(F)(F)F)ccc54)cc3c21` (stereo not shown) [Example 152, 4-amino-7-fluoro-1-methyl-N-(thiazol-4-yl)-N-(5-(trifluoromethyl)-2,3-dihydro-1H-inden-1-yl)-1H-pyrazolo[4,3-c]quinolin-8-carboxamide] yielded an IC50 [2] of 4 nM.

`Cn1ncc2c(N)nc3cc(F)c(C(=O)N(Cc4ncccn4)C4CCc5cc(C(F)(F)F)ccc54)cc3c21` (stereo not shown) [Example 7, 4-amino-7-fluoro-1-methyl-N-(pyrimidin-2-ylmethyl)-N-(5-(trifluoromethyl)-2,3-dihydro-1H-inden-1-yl)-1H-pyrazol[4,3-c]quinolin-8-carboxamide] showed an IC50 [2] of 57 nM.

Work on `Cn1cc(N(C(=O)c2cc3c(cc2F)nc(N)c2cnn(C)c23)C2CCc3cc(C(F)(F)F)ccc32)cn1` (stereo not shown) [Example 8, 4-amino-7-fluoro-1-methyl-N-(1-methyl-1H-pyrazol-4-yl)-N-(5-(trifluoromethyl)-2,3-dihydro-1H-inden-1-yl)-1H-pyrazolo[4,3-c]quinolin-8-carboxamide] yielded an IC50 [2] of 4 nM.
